Test results taken from patent publication US5086066A, “Method of providing anxiolytic and antipsychotic treatment with substituted benzamides” (priority 1988, dated 1992).

How the values were obtained:
mice = experiment: two compartment (dark and light) box test, anxiolytic activity; type: in vivo; conditions: for % time in black compartment / Black compartment rearings/5 min / Black compartment transits/5 min / Delay white → black / White compartment rearings/5 min / White compartment transits/5 min: 40 min after administration, S.E.M. <12.6%, n = 5
Experimental: The two compartment box test was conducted in mice to evaluate anxiolytic activity. This test is based on a natural aversion of mice to light. The apparatus used is a box containing two compartments, one of which is dark (labeled "black compartment" in the Table 1) and the other illuminated (labeled "white compartment" in Table 1). The apparatus is designed to allow the animal to choose between staying in either of the two compartments. Under normal conditions, the mice avoid light and usually remain in the dark compartment. Under the influence of an anxiolytic agent, however, exploration of the illustrated compartment predominates. The test consists of placing each mouse in the center of the illuminated compartment and observing the animal's behavior by video system for 5 minutes. The number of exploratory rearings and the number of displacements (the crossing of lines traced on the floor of each compartment constitute "passages") are then recorded for each compartment. An anxiolytic effect induced by a drug, such as diazepam, is characterized by an increase in the number of exploratory rearings and in the number of passages into the illuminated compartment. The compounds of the invention were injected subcutaneously at variable doses, each dose being administered to a group of 5 mice.

rats = experiment: hyperactivity induced by injection of amphetamine into the nucleus accumbens (motor activity), antipsychotic activity; type: in vivo
Experimental: Tests were conducted to measure the antipsychotic activity of the compounds of the invention. In particular, the hyperactivity induced in rats by the perfusion of amphetamine into the nucleus accumbens was evaluated. This test consists in determining the effect of the compounds of the invention on hyperactivity produced in rats by the injection of amphetamine into the nucleus accumbens. Hyperactivity was induced by injecting 20 μg of amphetamine bilaterally into the nucleus accumbens. The compounds of the invention were administered subcutaneously at doses of 1 mg/kg and 10 mg/kg, 40 minutes before the injection of amphetamine. For each dose of test product, a group of 5 animals was used. A group treated only with amphetamine and a reference group which received only an inert vehicle comprised 10 animals.
Immediately after the injection of amphetamine, the rats were placed in individual cages equipped with photoelectric cells. Motor activity, characterized by the number of shifts from place to place in these cages, was determined by the number of interruptions of a light beam striking these cells. The measurements were made during the 80 minutes following the injection of amphetamine. The results, expressed as the number of shifts from place to place per 10-minute period, are collated in Table 2.

[1] = acute toxicity, median lethal dose (LD50) intravenously; conditions: mouse, in vivo, iv
Text: The compounds of the invention were also subjected to a study of acute toxicity when injected intravenously in male mice and female mice, which enabled the median lethal doses (LD50) to be determined.

**Q.** With `CCN(CC)CCNC(=O)c1cc(Cl)c(NC2=NC(C)CN2)cc1OC` (stereo not drawn) [Compound 1, N-[2-(diethylamino)ethyl]-2-methoxy-4-[(4,5-dihydro-4-methyl-1H-imidazol-2-yl)amino]-5-chlorobenzamide] as the compound, how does the “% time in black compartment” value (mice; 0.01 mg/kg s.c.) read?
**A.** The value was 36%.

**Q.** What about the “Black compartment rearings/5 min” value (mice; 0.01 mg/kg s.c.) of the same compound?
**A.** The value was 16 rearings/5 min.

**Q.** What about the “Black compartment transits/5 min” value (mice; 0.01 mg/kg s.c.) of the same compound?
**A.** The value was 37 transits/5 min.

**Q.** What about the “Delay white → black” value (mice; 0.01 mg/kg s.c.) of the same compound?
**A.** The value was 19 s.

**Q.** And the “White compartment rearings/5 min” value (mice; 0.01 mg/kg s.c.)?
**A.** The value was 57 rearings/5 min.

**Q.** And the “White compartment transits/5 min” value (mice; 0.01 mg/kg s.c.)?
**A.** The value was 77 transits/5 min.

**Q.** What about the “% time in black compartment” value (mice; 0.1 mg/kg s.c.) of the same compound?
**A.** The value was 27%.

**Q.** What about the “Black compartment rearings/5 min” value (mice; 0.1 mg/kg s.c.) of the same compound?
**A.** The value was 14 rearings/5 min.

**Q.** And the “Black compartment transits/5 min” value (mice; 0.1 mg/kg s.c.)?
**A.** The value was 23 transits/5 min.

**Q.** And the “Delay white → black” value (mice; 0.1 mg/kg s.c.)?
**A.** The value was 22 s.

**Q.** And the “White compartment rearings/5 min” value (mice; 0.1 mg/kg s.c.)?
**A.** The value was 73 rearings/5 min.

**Q.** What about the “White compartment transits/5 min” value (mice; 0.1 mg/kg s.c.) of the same compound?
**A.** The value was 79 transits/5 min.

**Q.** What about the minimal effective dose (mice; Mus musculus, sc, 40 min, subcutaneous, mice, read-out: dose at and above which anxiolytic activity is manifested) of the same compound?
**A.** The minimal effective dose was no less than 0.01 mg/kg.

**Q.** What about the Motor activity (rats; 1 mg/kg s.c. 40 min before amphetamine 20 μg, time 10 min) of the same compound?
**A.** The Motor activity was 49 ± 9 shifts from place to place/10 minutes.

**Q.** What about the Motor activity (rats; 1 mg/kg s.c. 40 min before amphetamine 20 μg, time 20 min) of the same compound?
**A.** The Motor activity was 35 ± 3 shifts from place to place/10 minutes.

**Q.** And the Motor activity (rats; 1 mg/kg s.c. 40 min before amphetamine 20 μg, time 30 min)?
**A.** The Motor activity was 45 ± 8 shifts from place to place/10 minutes.

**Q.** And the Motor activity (rats; 1 mg/kg s.c. 40 min before amphetamine 20 μg, time 40 min)?
**A.** The Motor activity was 40 ± 8 shifts from place to place/10 minutes.

**Q.** What about the Motor activity (rats; 1 mg/kg s.c. 40 min before amphetamine 20 μg, time 50 min) of the same compound?
**A.** The Motor activity was 11 ± 3 shifts from place to place/10 minutes.

**Q.** What about the Motor activity (rats; 1 mg/kg s.c. 40 min before amphetamine 20 μg, time 60 min) of the same compound?
**A.** The Motor activity was 12 ± 2 shifts from place to place/10 minutes.

**Q.** What about the Motor activity (rats; 1 mg/kg s.c. 40 min before amphetamine 20 μg, time 70 min) of the same compound?
**A.** The Motor activity was 8 ± 1 shifts from place to place/10 minutes.

**Q.** What about the Motor activity (rats; 10 mg/kg s.c. 40 min before amphetamine 20 μg, time 10 min) of the same compound?
**A.** The Motor activity was 27 ± 4 shifts from place to place/10 minutes.

**Q.** And the Motor activity (rats; 10 mg/kg s.c. 40 min before amphetamine 20 μg, time 20 min)?
**A.** Its Motor activity is 27 ± 6 shifts from place to place/10 minutes.

**Q.** What about the Motor activity (rats; 10 mg/kg s.c. 40 min before amphetamine 20 μg, time 30 min) of the same compound?
**A.** The Motor activity was 13 ± 3 shifts from place to place/10 minutes.

**Q.** And the Motor activity (rats; 10 mg/kg s.c. 40 min before amphetamine 20 μg, time 40 min)?
**A.** The Motor activity was 11 ± 2 shifts from place to place/10 minutes.

**Q.** And the Motor activity (rats; 10 mg/kg s.c. 40 min before amphetamine 20 μg, time 50 min)?
**A.** The Motor activity was 8 ± 2 shifts from place to place/10 minutes.

**Q.** What about the LD50 ([1]; female mice) of the same compound?
**A.** The LD50 was 24 mg/kg.

**Q.** What about the LD50 ([1]; male mice) of the same compound?
**A.** Its LD50 is 19.5 mg/kg.
